Assay results as given in patent publication US10906884B2, “Benzodiazepine derivatives as CCK2/gastrin receptor antagonists” (Trio Medicines Ltd, priority 2014, dated 2021).

How the values were obtained:
[1] = in vivo; cited from earlier work
[2] = system: gastrin-stimulated acid secretion; details: oral, healthy men; cited from earlier work
[3] = cited from earlier work
CCK2 (human) [4] = target: T1, CCK2 (human) (Homo sapiens, UniProt P32239); details: cited from earlier work
T1 sequence (P32239 1-447): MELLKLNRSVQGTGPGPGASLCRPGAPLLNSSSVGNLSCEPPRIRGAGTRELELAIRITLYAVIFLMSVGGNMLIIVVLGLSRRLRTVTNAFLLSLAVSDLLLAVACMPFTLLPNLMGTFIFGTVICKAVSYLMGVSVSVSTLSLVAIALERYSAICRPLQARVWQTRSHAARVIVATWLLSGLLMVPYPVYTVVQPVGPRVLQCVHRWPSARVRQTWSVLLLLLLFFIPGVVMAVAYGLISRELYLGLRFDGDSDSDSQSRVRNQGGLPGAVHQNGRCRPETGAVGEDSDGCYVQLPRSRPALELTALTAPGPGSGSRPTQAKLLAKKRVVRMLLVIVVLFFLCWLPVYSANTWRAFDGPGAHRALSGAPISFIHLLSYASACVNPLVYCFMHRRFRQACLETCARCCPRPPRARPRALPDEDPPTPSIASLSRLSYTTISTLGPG

panic attacks = details: patients; cited from earlier work
[5] = system: pentagastrin-stimulated gastric acid secretion; test: Pentagastrin-stimulated gastric acid secretion in conscious rats with a chronic gastric fistula; assay type: in vivo; details: Rattus norvegicus, sc, read-out: ED50, inhibition of pentagastrin-stimulated gastric acid secretion
Experimental: The effect of subcutaneous injections of YF476, (TR2) and (TR3) on pentagastrin-stimulated gastric acid secretion was tested in conscious rats with a chronic gastric fistula.

CCK1 (human) = target: T2, CCK1 (human) (Homo sapiens, UniProt P32238); test: CCK1 receptor functional assay (antagonist effect, cAMP, HTRF); assay type: cell-based; details: stimulus CCK-8s 300 nM, 10 min 37° C., CHO cells
T2 construct: expressed in transfected cells; host or cells: CHO cells
T2 sequence (P32238 1-428): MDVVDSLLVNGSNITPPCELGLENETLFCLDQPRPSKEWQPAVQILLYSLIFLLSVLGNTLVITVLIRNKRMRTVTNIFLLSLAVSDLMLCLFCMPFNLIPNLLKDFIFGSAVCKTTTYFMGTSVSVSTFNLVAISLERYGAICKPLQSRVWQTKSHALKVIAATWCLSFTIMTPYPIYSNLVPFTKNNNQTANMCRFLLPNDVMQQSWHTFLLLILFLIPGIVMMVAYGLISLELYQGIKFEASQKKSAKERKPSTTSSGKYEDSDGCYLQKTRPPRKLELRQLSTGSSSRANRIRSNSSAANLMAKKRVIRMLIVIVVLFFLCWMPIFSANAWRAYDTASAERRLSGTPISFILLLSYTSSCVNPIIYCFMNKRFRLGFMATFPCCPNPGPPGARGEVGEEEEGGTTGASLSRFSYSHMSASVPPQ
Excerpt: (§1) (TR2) and (TR3) were compared with YF476 and YM022 in CCK1 and CCK2 receptor functional assays with the following assay criteria.
(§2) The potency of the antagonists is expressed as IC50, the concentration of antagonist that causes a half-maximum inhibition of the control agonist response. The affinity of the antagonist for the receptor is expressed as KB, the concentration of antagonist, which would occupy 50% of the receptors at equilibrium.

[6] = system: AGSGR cells (gastric adenocarcinoma cell line transfected with human gastrin/CCK2 receptor gene); test: Sulphorhodamine-B (SRB) proliferation assay, G17-treated cells; assay type: cell-based; details: G17 10 nM
Experimental: The potency of (TR2) and (TR3) was tested in a sulphorhodamine-B (SRB) proliferation assay in a human gastric adenocarcinoma cell line stably transfected with the human gastrin/CCK2 receptor gene (AGSGR). SRB is a fluorescent dye that binds to proteins, so cells with a high rate of protein synthesis (proliferative cells) will show high levels of fluorescence in the SRB assay. […] (TR2) and (TR3) were compared with the positive controls YF476 and YM022.

panel of 80 receptors = test: Receptor binding screen, radiolabelled ligands, scintillation counting; details: other than CCK2 and CCK1
Experimental: The potential of (TR2) and (TR3) to bind to other cellular and nuclear receptors was tested in a panel of 80 receptors. The assay used radiolabelled receptor ligands (agonist or antagonist, depending on the receptor), and the ability of the test compounds to inhibit ligand binding was measured by scintillation counting.

CCK2 (human) [7] = target: T1, CCK2 (human); test: CCK2 receptor functional assay (antagonist effect, cAMP, HTRF); assay type: cell-based; set-up: expressed in transfected cells; host or cells: CHO cells; details: for IC50 / Kb: stimulus CCK-8s 10 nM, 10 min 37° C., CHO cells; for IC50: read-out: CCK2 IC50; for Kb: read-out: CCK2 KB
Excerpt: as §1, §2

[8] = Pharmacokinetics in healthy subjects, single oral dose, API in capsule; details: human, in vivo, po, 100 mg
Experimental: In an initial study, healthy volunteers took a single oral dose of 100 mg (TR2) as an active pharmaceutical ingredient (API) in a capsule. Plasma concentrations were measured.
In further clinical studies, healthy volunteers (n=8) took single oral doses of 5, 15, 50 and 100 mg (TR2) as an active pharmaceutical ingredient (API) in a capsule. (Capsule formulation TR2 powder (API) in a hard gelatin capsule, no excipients, no processing). Plasma concentrations were measured.
Healthy volunteers (n=8) took single oral doses of 5, 15, 25 and 50 mg (TR2-A) as API in a capsule (TR2-A (crystalline) in hard gelatin capsule with no excipient, no processing of the API). Plasma concentrations of (TR2) and (TR2-A) were measured. The area under the curve of plasma concentrations of (TR2) after a single oral dose of 50 mg of (TR2-A) API (AUC0-24 h=212.5) was about the same as that observed for a similar formulation of a single oral dose of (TR2) 100 mg (AUC0-24 h=241.5).

Cc1cccc(NC(=O)N[C@@H]2N=C(c3ccccc3)c3ccccc3N(C)C2=O)c1 [L-365,260]
Oral bioavailability [1]: poor | Inhibition of gastrin-stimulated acid secretion [2]: only modest and short lasting inhibition | Aqueous solubility [3]: low | Affinity at CCK2 receptors (CCK2 (human) [4]): nanomolar | Selectivity versus the CCK1 receptor (CCK2 (human) [4]): 140 fold | Limiting panic attacks (panic attacks): ineffective

CNc1cccc(NC(=O)N[C@@H]2N=C(c3ccccn3)c3ccccc3N(CC(=O)C(C)(C)CO)C2=O)c1 [TR2, (R)-1-[1-(4-Hydroxy-3,3-dimethyl-2-oxo-butyl)-2-oxo-5-pyridin-2-yl-2,3-dihydro-1H-benzo[e][1,4]diazepin-3-yl]-3-(3-methylamino-phenyl)-urea]
ED50 [5]: 0.03 µmol/kg | IC50 (CCK1 (human)): 1000 nM | Inhibition of the anti-proliferative effects of G17 ([6]; compound 100 nM): completely inhibited | Binding to other cellular and nuclear receptors (inhibition of ligand binding) (panel of 80 receptors): No significant receptor binding | Selectivity IC50 (CCK1)/IC50 (CCK2) (CCK2 (human) [7]): 400 | Selectivity KB (CCK1)/KB (CCK2) (CCK2 (human) [7]): 484 | Affinity for the CCK2 receptor, fold lower than that of YF476 (CCK2 (human) [7]; relative to YF476): about 5 fold | Selectivity for CCK2 over CCK1 receptor, higher than the selectivity of YF476 (CCK2 (human) [7]; relative to YF476): 30% | Potency in CCK2 assay, fold less potent than YF476 and YM022 (CCK2 (human) [7]; relative to YF476 and YM022): about 5 fold | Affinity for the CCK2 receptor relative to YM022 (CCK2 (human) [7]; relative to YM022): twice that of YM022 | IC50 (CCK2 (human) [7]): 2.5 nM | Kb (CCK2 (human) [7]): 0.31 nM | AUC [8]: 439 ng·h/mL | AUC(0-t) [8]: 242 ng·h/mL | Mean AUC0-24 h of plasma concentrations [8]: 241.5 ng·h/mL

CNc1cccc(NC(=O)N[C@H]2N=C(c3ccccn3)c3ccccc3N(CC(=O)C(C)(C)CO)C2=O)c1 [TR3]
ED50 [5]: 0.3 µmol/kg | IC50 (CCK1 (human)): 8500 nM | Inhibition of the anti-proliferative effects of G17 ([6]; compound 500 nM): had the same effect | Binding to other cellular and nuclear receptors (inhibition of ligand binding) (panel of 80 receptors): No significant receptor binding | Selectivity IC50 (CCK1)/IC50 (CCK2) (CCK2 (human) [7]): 86 | Selectivity KB (CCK1)/KB (CCK2) (CCK2 (human) [7]): 108 | IC50 (CCK2 (human) [7]): 99 nM | Kb (CCK2 (human) [7]): 12 nM
